# Results taken from patent US20110318375A1, “Immunomodulatory Therapeutic Agents” (priority 2009, published 2011).
# “Also recorded” adds a separate entry of the source. No end group written: not given here. PEG = not defined here
# Experiments:
# [1] = tested on: Experimental Allergic Encephalomyelitis (EAE); test: Acute Experimental Allergic Encephalomyelitis mouse model; format: in vivo, mice; details: subcutaneous, dosed daily, every 3 days and weekly
# Source text: The carboxy terminus of activated Fibrinopeptide A was considered to be the active portion of the peptide, the carboxy terminus was PEGylate (addition of Poly Ethylene Glycol). This molecule was used to perform an EAE study. This study was designed to mimic the study done by Ruhenstroth-Bauer in 1981 utilizing two of these peptides, and showing some albeit mild benefit. The synthetic PEGylated peptide was expected to perform considerably better than the non-PEGylated peptide. Synthetic non-PEGylated peptide A was used as a positive control to compare the PEGylated verses non-PEGylated peptides. The medications were administered subcutaneously, due to this route having some efficacy in the cytokine profiles.
# Test article 2 (PEGylated peptide) dosed daily, every 3 days and weekly never even approached statistically significant benefit.
# During the first 22 days of the study EAE development in mice treated with test article 1 (daily non-PEGylated peptide A) was very similar to the vehicle-treated mice. […] Disease worsened in test article 1-treated mice on days 27 and 28 and became very similar to disease severity to the mice in the vehicle-treated group.
# Ponto Toro Virus = format: in vivo, mice; details: mouse, in vivo
# cytokine panels = test: Cytokine panels for 24 hours after synthetic imf-C3, healthy volunteer; format: in vivo, human; details: followed for 24 hours
# Procedure: After getting back the results of the Ponto Toro test and seeing no results from imf-C3, a healthy volunteer was given synthetic imf-C3 and cytokine panels were followed for 24 hours.
Substance,EAE development / activity versus vehicle-treated mice [1],EAE development / activity versus vehicle-treated mice ([1]; listed as PEGylated Fibrinopeptide A),results of the Ponto Toro test (Ponto Toro Virus),changes in cytokine panels (cytokine panels)
"PEGylated peptide: activated Fibrinopeptide A with Poly Ethylene Glycol added to the carboxy terminus (ADSGEGDFLAEGGGVR-{PEG}; reading uncertain; UniProt P02671 20-35, looked up)",little or no response; also recorded: no activity,decrease any measurable activity,,
SEETKENERFTV [imf-C3],,,no results,did not demonstrate in any changes
